Measurements as given in ChEMBL document CHEMBL1201862, “PubChem BioAssay data set” (2004).
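Dose response: 5 concentrations. Exposure: 48 h. Format: 96-well plates. Endpoint: linear interpolation; highest concentration if not reached. GI50 is the concentration that inhibits growth by half.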 Activity calls are given as the source filed them. Rule as the data show it: active = GI50 up to about 1.1 µM and inactive = higher.

Tests used:
Experiment in all cases: NCI tumour cell line growth inhibition, 48 h
DMS-273 = tested on: DMS-273
SNB-78 = tested on: SNB-78
786-0 = tested on: 786-0
DMS-114 = tested on: DMS-114
EKVX = tested on: EKVX
SK-OV-3 = tested on: SK-OV-3
HL-60 = tested on: HL-60
OVCAR-4 = tested on: OVCAR-4
NCI-H460 = tested on: NCI-H460
NCI-H23 = tested on: NCI-H23
RXF 631 = tested on: RXF 631
HT-29 = tested on: HT-29
CCRF-CEM = tested on: CCRF-CEM
HOP-62 = tested on: HOP-62
HCT-116 = tested on: HCT-116
NCI-H226 = tested on: NCI-H226
UO-31 = tested on: UO-31
HCC 2998 = tested on: HCC 2998
MOLT-4 = tested on: MOLT-4
SK-MEL-28 = tested on: SK-MEL-28
SR = tested on: SR
A549 = tested on: A549
SF-295 = tested on: SF-295
NCI-H522 = tested on: NCI-H522
SW-620 = tested on: SW-620
HCT-15 = tested on: HCT-15
KM12 = tested on: KM12
UACC-62 = tested on: UACC-62
RXF 393 = tested on: RXF 393
SNB-19 = tested on: SNB-19
CAKI-1 = tested on: CAKI-1
Malme-3M = tested on: Malme-3M
K562 = tested on: K562
M14 = tested on: M14
TK-10 = tested on: TK-10
A498 = tested on: A498
SF-268 = tested on: SF-268
IGROV-1 = tested on: IGROV-1
SN12C = tested on: SN12C
U-251 = tested on: U-251
OVCAR-5 = tested on: OVCAR-5
M19-MEL = tested on: M19-MEL
OVCAR-8 = tested on: OVCAR-8
SK-MEL-2 = tested on: SK-MEL-2
SF-539 = tested on: SF-539
ACHN = tested on: ACHN
OVCAR-3 = tested on: OVCAR-3
UACC-257 = tested on: UACC-257
LOX IMVI = tested on: LOX IMVI
KM-20L2 = tested on: KM-20L2
HOP-18 = tested on: HOP-18
COLO 205 = tested on: COLO 205
SNB-75 = tested on: SNB-75
SK-MEL-5 = tested on: SK-MEL-5
HOP-92 = tested on: HOP-92
XF498 = tested on: XF498
DLD-1 = tested on: DLD-1
RPMI-8226 = tested on: RPMI-8226
LXFL 529 = tested on: LXFL 529

In the case of `CCOc1nc(OCC)nc(-c2cccn2-c2ccccc2)n1`, the GI50 (DMS-273) is reported as 30.1 µM (inactive), the GI50 (SNB-78) is reported as 32.3 µM (inactive) and the GI50 (786-0) is reported as 45.1 µM (inactive). For the same compound, the GI50 (DMS-114) was 27.7 µM (inactive), the GI50 (EKVX) was 38.2 µM (inactive) and the GI50 (SK-OV-3) was 33 µM (inactive). The GI50 (HL-60) was 21.7 µM (inactive), the GI50 (OVCAR-4) was 25.8 µM (inactive) and the GI50 (NCI-H460) was 29 µM (inactive). The GI50 (NCI-H23) was 30.8 µM (inactive), the GI50 (RXF 631) was 57.5 µM (inactive) and the GI50 (HT-29) was 34.6 µM (inactive). For the same compound, the GI50 (CCRF-CEM) was 29.6 µM (inactive), the GI50 (HOP-62) was 46.1 µM (inactive) and the GI50 (HCT-116) was 37.3 µM (inactive). For the same compound, the GI50 (NCI-H226) was 32.7 µM (inactive), the GI50 (UO-31) was 22.1 µM (inactive) and the GI50 (HCC 2998) was 32.3 µM (inactive). The GI50 (MOLT-4) was 17.7 µM (inactive), the GI50 (SK-MEL-28) was 35.4 µM (inactive) and the GI50 (SR) was 26.3 µM (inactive). The GI50 (A549) was 37.1 µM (inactive), the GI50 (SF-295) was 33.7 µM (inactive) and the GI50 (NCI-H522) was 32.7 µM (inactive). The GI50 (SW-620) was 50.4 µM (inactive), the GI50 (HCT-15) was 34.6 µM and the GI50 (KM12) was 28.5 µM (inactive). For the same compound, the GI50 (UACC-62) was 27.7 µM (inactive), the GI50 (RXF 393) was 29.5 µM (inactive) and the GI50 (SNB-19) was 31.4 µM (inactive). For the same compound, the GI50 (CAKI-1) was 30.5 µM (inactive), the GI50 (Malme-3M) was 21.4 µM (inactive) and the GI50 (K562) was 30.5 µM (inactive). For the same compound, the GI50 (M14) was 38.3 µM (inactive), the GI50 (TK-10) was 23 µM (inactive) and the GI50 (A498) was 47.4 µM (inactive). The GI50 (SF-268) was 46.5 µM (inactive), the GI50 (IGROV-1) was 29.6 µM (inactive) and the GI50 (SN12C) was 45.6 µM (inactive). The GI50 (U-251) was 18.5 µM (inactive), the GI50 (OVCAR-5) was 74.1 µM (inactive) and the GI50 (M19-MEL) was 37.2 µM (inactive). For the same compound, the GI50 (OVCAR-8) was 35.5 µM (inactive), the GI50 (SK-MEL-2) was 34.8 µM (inactive) and the GI50 (SF-539) was 51.5 µM (inactive). The GI50 (ACHN) was 32.2 µM (inactive), the GI50 (OVCAR-3) was 20.7 µM (inactive) and the GI50 (UACC-257) was 40.5 µM (inactive).

With `O=C1C(Cl)=C(Cl)C(=O)N1c1ccccc1Cl` the GI50 (LOX IMVI) was > 100 µM (inactive), the GI50 (DMS-273) was > 100 µM (inactive) and the GI50 (SNB-78) was > 100 µM (inactive). The GI50 (786-0) was > 79.3 µM (inactive), the GI50 (DMS-114) was > 95.1 µM (inactive) and the GI50 (EKVX) was > 100 µM (inactive). The GI50 (SK-OV-3) was > 100 µM (inactive), the GI50 (HL-60) was 15.3 µM (inactive) and the GI50 (KM-20L2) was > 100 µM (inactive). For the same compound, the GI50 (OVCAR-4) was > 100 µM (inactive), the GI50 (NCI-H460) was > 100 µM (inactive) and the GI50 (NCI-H23) was > 85.9 µM (inactive). For the same compound, the GI50 (HT-29) was > 71 µM (inactive), the GI50 (CCRF-CEM) was 11.9 µM (inactive) and the GI50 (HOP-62) was > 100 µM (inactive). For the same compound, the GI50 (HCT-116) was > 100 µM (inactive), the GI50 (NCI-H226) was > 100 µM (inactive) and the GI50 (UO-31) was > 100 µM (inactive). For the same compound, the GI50 (HOP-18) was > 100 µM (inactive), the GI50 (HCC 2998) was > 100 µM (inactive) and the GI50 (MOLT-4) was 30.9 µM (inactive). For the same compound, the GI50 (SK-MEL-28) was > 100 µM (inactive), the GI50 (SR) was 14.7 µM (inactive) and the GI50 (A549) was > 100 µM (inactive). For the same compound, the GI50 (SF-295) was > 100 µM (inactive), the GI50 (NCI-H522) was 8.24 µM (inactive) and the GI50 (COLO 205) was > 63.7 µM (inactive). For the same compound, the GI50 (SW-620) was > 52.6 µM (inactive), the GI50 (HCT-15) was over 53.6 µM and the GI50 (SNB-75) was > 100 µM (inactive). The GI50 (SK-MEL-5) was > 100 µM (inactive), the GI50 (KM12) was > 100 µM (inactive) and the GI50 (UACC-62) was > 100 µM (inactive). The GI50 (HOP-92) was > 36.7 µM (inactive), the GI50 (RXF 393) was 50.2 µM (inactive) and the GI50 (SNB-19) was > 100 µM (inactive). The GI50 (CAKI-1) was > 44.2 µM (inactive), the GI50 (XF498) was > 100 µM (inactive) and the GI50 (Malme-3M) was > 52.5 µM (inactive). For the same compound, the GI50 (K562) was 28.9 µM (inactive), the GI50 (DLD-1) was > 52.2 µM (inactive) and the GI50 (M14) was > 75.9 µM (inactive). The GI50 (TK-10) was > 100 µM (inactive), the GI50 (A498) was > 100 µM (inactive) and the GI50 (SF-268) was > 100 µM (inactive). For the same compound, the GI50 (IGROV-1) was > 100 µM (inactive), the GI50 (SN12C) was > 100 µM (inactive) and the GI50 (U-251) was > 100 µM (inactive). For the same compound, the GI50 (OVCAR-5) was > 100 µM (inactive), the GI50 (RPMI-8226) was > 54.1 µM (inactive) and the GI50 (M19-MEL) was > 100 µM (inactive). For the same compound, the GI50 (OVCAR-8) was > 100 µM (inactive), the GI50 (SK-MEL-2) was > 100 µM (inactive) and the GI50 (SF-539) was > 100 µM (inactive). The GI50 (LXFL 529) was > 53 µM (inactive), the GI50 (ACHN) was > 100 µM (inactive) and the GI50 (OVCAR-3) was 99.3 µM (inactive). For the same compound, the GI50 (UACC-257) was > 100 µM (inactive).

For `CC[C@@]1(O)C[C@H](OC2CC(N(C)C)C(OC3CC(O)C(OC4CCC(=O)C(C)O4)C(C)O3)C(C)O2)c2c(cc3c(c2O)C(=O)c2c(O)cccc2C3=O)[C@H]1C(=O)OC` (stereo not given in full), the GI50 (HL-60) was 0.0231 µM (active), the GI50 (KM-20L2) was 0.0247 µM (active) and the GI50 (RXF 631) was 0.00711 µM (active). For the same compound, the GI50 (CCRF-CEM) was 0.0229 µM (active), the GI50 (HOP-18) was 0.0458 µM (active) and the GI50 (SK-MEL-28) was 0.0443 µM (active). The GI50 (DLD-1) was 0.0238 µM (active), the GI50 (RPMI-8226) was 0.0243 µM (active) and the GI50 (LXFL 529) was 0.00776 µM (active).
